This note sets out measurements from ChEMBL document CHEMBL5376010, “Formation of Trideuteromethylated Artifacts of Pyrrole-Containing Natural Products” (J Nat Prod, 2024).

Data set [1] deals with Panel NCI-60 (60 carcinoma cell lines). Briefly: Anticancer activity against human Panel NCI-60 (60 carcinoma cell lines) assessed as growth inhibition. The data set is classed as functional.
For data set [2] the test system is unchanged. Description: Anticancer activity against human Panel NCI-60 (60 carcinoma cell lines) assessed as cell growth inhibition at 10 uM. The data set is classed as functional, cell-based.
Data set [3] is filed under the species Homo sapiens. Description: Selectivity ratio of IC50 for human HaCaT cells to IC50 for human WaGa cells. Conditions: tested as the 2H-labelled form.
For data set [4], the species on record is Homo sapiens. Description: Selectivity ratio of IC50 for human HaCaT cells to IC50 for human MKL-1 cells. Conditions: tested as the 2H-labelled form.
For data set [5], the species on record is Homo sapiens. Description: Selectivity ratio of IC50 for human HaCaT cells to IC50 for human MCC26 cells. Conditions: tested as the 2H-labelled form.
Data set [6] is filed under the species Homo sapiens. Briefly: Selectivity ratio of IC50 for human HaCaT cells to IC50 for human MCC13 cells. Conditions: tested as the 2H-labelled form.
For data set [7], the species on record is Homo sapiens. Description: Selectivity ratio of IC50 for human HaCaT cells to IC50 for human UISO cells. Conditions: tested as the 2H-labelled form.
Data set [8] is described as follows: Anticancer activity against human MKL-1 cells assessed as inhibition of cell growth. Type of data set: functional, cell-based.
Data set [9] in a line: Anticancer activity against human UISO cells assessed as inhibition of cell growth. Type of data set: functional, cell-based.
Data set [10] in a line: Anticancer activity against human WaGa cells assessed as inhibition of cell growth. Type of data set: functional, cell-based.
Data set [11] can be described thus: Cytotoxicity against human HaCaT cells assessed as inhibition of cell growth. Type of data set: toxicity, cell-based.
Data set [12] is described as follows: Anticancer activity against human MCC26 cells assessed as inhibition of cell growth. Type of data set: functional, cell-based.
Data set [13] in a line: Anticancer activity against human MCC13 cells assessed as inhibition of cell growth. Type of data set: functional, cell-based.

The structures appear in SMILES notation. The source made the active and inactive calls. The calls are words filed in the database; no cut-off is given here.

What is called GI50 is the concentration that inhibits growth by half. For `O=C1C(Br)=CC2(C=C1Br)CCNC1=C2C2=NCCc3c(Br)[nH]c(c32)C1=O`, the 50% growth inhibitory concentration (GI50) in data set [1] was 420 nM.

For the molecule `Cc1[nH]c2c3c1CC[N+]1=C3C3=C(N[C@@H]4C[C@@]35C(=CC(=O)[C@@H]1[C@@H]5Sc1ncn(C)c1C[C@H](N)C(=O)O)S4)C2=O`, the result in data set [2] (tested as the 2H-labelled form) was inactive.

Regarding `Cc1[nH]c2c3c1CC[N+]1=C3C3=C(N[C@@H]4C[C@@]35C(=CC(=O)[C@@H]1[C@@H]5O)S4)C2=O`, the Ratio IC50 in [3] stood at 13; in data set [4], 13; in [5], 3; in [6], 3; in data set [7], 3. Besides, the GI50 in data set [1] came out at 5750 nM.

One may read the IC50 as the concentration at which inhibition is half-maximal. `O=C([O-])C(F)(F)F.[2H]C([2H])([2H])c1[nH]c2c3c1CC[N+]1=C3C3=C(N[C@@H]4C[C@@]35C(=CC(=O)[C@@H]1[C@@H]5O)S4)C2=O`: the IC50 in [8] came out at 250 nM; in [9] it was 1410 nM; in [10] it was 720 nM; in [11] it was 6200 nM; in data set [12] it was 1990 nM; in data set [13], 2500 nM. In addition, the GI50 in [1] turned out to be 1650 nM.

With `O=C1C2=C3C4=[N+](CCc5c[nH]c1c54)[C@@H]1C(=O)C=C4S[C@@H](C[C@@]43[C@H]1O)N2` [DISCORHABDIN L], in data set [1], the GI50 came out at 790 nM.

For the molecule `Cn1cnc(S[C@H]2[C@H]3C(=O)C=C4S[C@H]5C[C@]42C2=C(N5)C(=O)c4[nH]cc5c4C2=[N+]3CC5)c1C[C@H](N)C(=O)O`, in data set [2], the result was inactive.

In the case of `O=C1C(Br)=CC2(C=C1Br)CCNC1=C2C2=NCCc3c[nH]c(c32)C1=O` [DISCORHABDIN C], the GI50 in [1] turned out to be 130 nM.
